Experimental data reported in PMC12228513 (Journal of the American Chemical Society, 2025).

Molecular target: T1, AlnA (Streptomyces sp. CM020, UniProt B6SEG5)
T1 sequence (B6SEG5 1-306): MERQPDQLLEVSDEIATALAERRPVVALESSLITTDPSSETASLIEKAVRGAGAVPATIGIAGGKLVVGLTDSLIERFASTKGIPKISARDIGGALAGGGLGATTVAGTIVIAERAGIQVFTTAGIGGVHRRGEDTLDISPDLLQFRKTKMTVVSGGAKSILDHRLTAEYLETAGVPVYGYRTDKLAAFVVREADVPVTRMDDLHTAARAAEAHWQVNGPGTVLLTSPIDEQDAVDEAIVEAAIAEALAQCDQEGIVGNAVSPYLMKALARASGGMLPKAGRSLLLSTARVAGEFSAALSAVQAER
Assay: protein mass spectrometry after NaBH4 trapping
Assay type: binding
Conditions: covalent; Schiff base at Lys159

Compound: O=P(O)(O)OC[C@H]1OC(O)[C@H](O)[C@@H]1O (stereo partly shown) [compound 4, ribose 5-phosphate]
- protein mass spectrometry after NaBH4 trapping; tryptic proteolysis: the covalent modification occurred at the highly conserved Lys159 residue in AlnA
